# Measurements published in US9718861B2 (Universitaet Leipzig, priority 2011, dated 2017).
# Like-named read-outs stand apart in the source and are kept apart here. Where a SMILES comes first, the peptide text is derived from it. Where no end group is shown, it is not given here. [ ]: non-standard residue; d: D form. d1Nal = N[C@H](Cc1cccc2ccccc12)C(=O)O; Cha = N[C@@H](CC1CCCCC1)C(=O)O; Phg = N[C@H](C(=O)O)c1ccccc1; Nva = CCC[C@H](N)C(=O)O
# Experiments:
# ghrelin receptor [1] = target: T1, ghrelin receptor (Homo sapiens, UniProt Q92847); assay: Inositol trisphosphate turnover assay in COS-7 cells transfected with the ghrelin receptor; format: cell-based; design: expressed in transfected cells; conditions: for Emax ± SEM: efficacy; for EC50: mean ± SEM of n experiments; for Emax: COS-7
# Target sequence in this assay (Q92847 whole entry): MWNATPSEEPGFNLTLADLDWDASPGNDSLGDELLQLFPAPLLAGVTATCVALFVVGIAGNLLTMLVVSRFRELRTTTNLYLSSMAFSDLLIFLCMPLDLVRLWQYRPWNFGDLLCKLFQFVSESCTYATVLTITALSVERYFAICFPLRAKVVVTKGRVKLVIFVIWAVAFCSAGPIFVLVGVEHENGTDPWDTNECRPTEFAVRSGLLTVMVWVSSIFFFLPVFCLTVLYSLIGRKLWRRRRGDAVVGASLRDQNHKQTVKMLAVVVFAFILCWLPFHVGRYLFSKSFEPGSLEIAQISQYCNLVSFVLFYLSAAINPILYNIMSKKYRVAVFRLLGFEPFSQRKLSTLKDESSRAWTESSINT
# Procedure: COS-7 cells were grown in a humidified atmosphere at 37° C. and 5% CO2 in Dulbecco's modified Eagle's medium with higher glucose supplemented with 10% (v/v) FCS and 1% (v/v) penicillin/streptomycin. COS-7 cells were seeded out in 24-well plates (80.000-100.000 cells/well) in DMEM with 10% FCS. […] Each well was treated with 0.3 μg DNA and 0.9 μl metafectene.
# The day after transfection, or the day after seeding for stable cells, cells were incubated with myo-[2-^3H]-inositol (2 μCi/ml) for 18 h and washed with DMEM/LiCl. Stimulation was then carried out with seven to nine different peptide concentrations in DMEM containing 10 mM LiCl, for 2 h, in duplicates. Stimulation was stopped by aspirating the medium and subsequently, cells were lysed with 150 μl of 0.1M NaOH for 5 min at RT. 50 μl of 0.2M HCOOH were added and the solution was diluted using 1 ml dilution buffer. […] Obtained data was analyzed with GraphPad Prism 3.0 (GraphPad Software). Therefore, dpm values are assigned to the corresponding peptide concentrations. Non-linear regression was used to obtain sigmoidal curves. For better comparability, dpm values were normalized to the constitutive activity. Constitutive activity of 100% represents the basal activity, the activity of the receptor without the influence of peptides. Emax is the efficacy of the peptide and represents the difference between constitutive activity and activity at maximal effect of the peptide. EC50 is the peptide concentration at half-maximal effect.
# rats = assay: ICV administration to rats, food intake; format: in vivo; conditions: 1 nmol/rat, n=6, vs vehicle 0.9% saline with DMSO
# From the text: For in vivo studies, peptide 3 was delivered intracerebroventricularly. The rats were stereotaxically implanted with a stainless steel cannula (Holm Finmekanik AS, Copenhagen, Denmark) aimed at the right lateral ventricle 1 mm caudal and 1.5 mm lateral to bregma and 4 mm ventral to cranium externa. Rats were left to recover in the metabolic cages (MANI Feed Win, Ellegaard Systems) for adaptation for at least 5 days, only interrupted by daily handling and body weight measurements. With these cages we could accurately measure the food and water intake of rats for up to 48 hours. The powdered diet used eliminated food hoarding and spill. Cannula placement was confirmed by measuring the drinking response to angiotensin injection (100 nmol/rat). Administration of peptide was done with 1 nmol/rat (n=6). As a negative control, a vehicle solution of 0.9% saline with DMSO (n=7) was used.
# ghrelin receptor [2] = target: T1, ghrelin receptor; conditions: background, cited from earlier work
# Target sequence in this assay (Q92847 whole entry, species assumed): as the sequence (Q92847 whole entry) above
# ghrelin receptor [3] = target: T1, ghrelin receptor; conditions: background; cited from earlier work
# Target sequence in this assay (Q92847 whole entry, species assumed): as the sequence (Q92847 whole entry) above
# [4] = inverse agonistic activity, difference to constitutive activity (Table 2)
# [5] = inverse agonistic activity, analogs KxFwLL-NH2 (Table 2)
# [6] = shift in efficacy compared to KwFwLL-NH2, inverse agonistic activity
# [7] = shift in potency compared to KwFwLL-NH2, inverse agonistic activity
# [8] = agonistic activity, read-out: Emax
# [9] = agonistic activity, ghrelin and analogs KwFxLL-NH2 (Table 3)
# [10] = agonistic activity, difference to constitutive activity (Table 3)
# [11] = shift in efficacy compared to ghrelin, agonistic activity
# [12] = shift in potency compared to ghrelin, agonistic activity
# [13] = inverse agonistic activity, analogs K-(D-1-Nal)-xwLL-NH2 (Table 5)
# [14] = shift of efficacy compared to K-(D-1-Nal)-FwLL-NH2, inverse agonistic activity
# [15] = shift of potency compared to K-(D-1-Nal)-FwLL-NH2, inverse agonistic activity
# [16] = inverse agonistic activity, read-out: efficacy (Emax)
compound,measurement,setting,value
"CC(C)C[C@H](NC(=O)[C@H](CC(C)C)NC(=O)[C@@H](Cc1c[nH]c2ccccc12)NC(=O)[C@H](Cc1ccccc1)NC(=O)[C@@H](Cc1ccc2ccccc2c1)NC(=O)[C@@H](N)CCCCN)C(N)=O [Peptide 6, K-(D-2-Nal)-FwLL-NH2]",activity at the ghrelin receptor (in words),ghrelin receptor [1],moderate activity
same,Emax ± SEM,ghrelin receptor [1]; [4],66 ± 4 Δ %
same,EC50,ghrelin receptor [1]; [5],161 nM
same,x-fold (Emax),ghrelin receptor [1]; [6],1.8 x-fold
same,x-fold (EC50),ghrelin receptor [1]; [7],3.54 x-fold
"CC(C)C[C@H](NC(=O)[C@H](CC(C)C)NC(=O)[C@@H](Cc1c[nH]c2ccccc12)NC(=O)[C@H](Cc1ccccc1)NC(=O)[C@@H](Cc1cccc2ccccc12)NC(=O)[C@@H](N)CCCCN)C(N)=O [Peptide 3, K-(D-1-Nal)-FwLL-NH2]",decrease of food intake compared to vehicle,rats,~5 fold
"CC(C)C[C@H](NC(=O)[C@H](CC(C)C)NC(=O)[C@@H](Cc1cccc2ccccc12)NC(=O)[C@H](Cc1ccccc1)NC(=O)[C@@H](Cc1c[nH]c2ccccc12)NC(=O)[C@@H](N)CCCCN)C(N)=O [Peptide 12, KwF-(D-1-Nal)-LL-NH2]",Emax,ghrelin receptor [1]; [8],54%
same,EC50,ghrelin receptor [1]; [9],17.9 nM
same,Emax ± SEM,ghrelin receptor [1]; [10],54 ± 10 Δ %
same,x-fold (Emax),ghrelin receptor [1]; [11],0.3 x-fold
same,x-fold (EC50),ghrelin receptor [1]; [12],12.8 x-fold
"CC(C)C[C@H](NC(=O)[C@H](CC(C)C)NC(=O)[C@@H](Cc1ccc2ccccc2c1)NC(=O)[C@H](Cc1ccccc1)NC(=O)[C@@H](Cc1c[nH]c2ccccc12)NC(=O)[C@@H](N)CCCCN)C(N)=O [Peptide 13, KwF-(D-2-Nal)-LL-NH2]",Emax,ghrelin receptor [1]; [8],156%
same,EC50,ghrelin receptor [1]; [9],12.6 nM
same,percent of ghrelin efficacy,"ghrelin receptor [1]; agonistic activity, relative to ghrelin",96%
same,Emax ± SEM,ghrelin receptor [1]; [10],156 ± 22 Δ %
same,x-fold (Emax),ghrelin receptor [1]; [11],1 x-fold
same,x-fold (EC50),ghrelin receptor [1]; [12],9.00 x-fold
"CC(C)C[C@H](NC(=O)[C@H](CC(C)C)NC(=O)[C@@H](Cc1c[nH]c2ccccc12)NC(=O)[C@H](Cc1ccccc1)NC(=O)[C@@H](Cc1ccccc1)NC(=O)[C@@H](N)CCCCN)C(N)=O [Peptide 9, K-(D-Phe)-FwLL-NH2]",activity at the ghrelin receptor (in words),ghrelin receptor [1],moderate activity
same,Emax ± SEM,ghrelin receptor [1]; [4],62 ± 4 Δ %
same,EC50,ghrelin receptor [1]; [5],241 nM
same,x-fold (Emax),ghrelin receptor [1]; [6],1.7 x-fold
same,x-fold (EC50),ghrelin receptor [1]; [7],5.28 x-fold
"CC(C)C[C@H](NC(=O)[C@H](CC(C)C)NC(=O)[C@@H](Cc1ccc(C(=O)c2ccccc2)cc1)NC(=O)[C@H](Cc1ccccc1)NC(=O)[C@@H](Cc1c[nH]c2ccccc12)NC(=O)[C@@H](N)CCCCN)C(N)=O [Peptide 15, KwF-(D-Bpa)-LL-NH2]",activity at the ghrelin receptor (in words),ghrelin receptor [1],no activity
"CC(C)C[C@H](NC(=O)[C@H](CC(C)C)NC(=O)[C@H](NC(=O)[C@H](Cc1ccccc1)NC(=O)[C@@H](Cc1c[nH]c2ccccc12)NC(=O)[C@@H](N)CCCCN)C(c1ccccc1)c1ccccc1)C(N)=O [Peptide 16, KwF-(D-Dip)-LL-NH2]",activity at the ghrelin receptor (in words),ghrelin receptor [1],no activity
wFwLL-NH2 ([dW]F[dW]LL-NH2; N-terminus assumed; SMILES CC(C)C[C@H](NC(=O)[C@H](CC(C)C)NC(=O)[C@@H](Cc1c[nH]c2ccccc12)NC(=O)[C@H](Cc1ccccc1)NC(=O)[C@H](N)Cc1c[nH]c2ccccc12)C(N)=O),IC50,"ghrelin receptor [2]; reference 17, read-out: IC50 (receptor binding)",530 ± 230 nM
fQwFwLL-NH2,decrease of affinity in comparison to full-length modified substance P,ghrelin receptor [2],5.3 fold
same,decrease of activity in comparison to full-length modified substance P,ghrelin receptor [3],1.6 fold
"CC(C)C[C@H](NC(=O)[C@H](CC(C)C)NC(=O)[C@@H](Cc1c[nH]c2ccccc12)NC(=O)[C@H](CC1CCCCC1)NC(=O)[C@@H](Cc1cccc2ccccc12)NC(=O)[C@@H](N)CCCCN)C(N)=O [Peptide 21, K-(D-1-Nal)-(Cha)-wLL-NH2] (H-K[d1Nal][Cha][dW]LL-NH2)",Emax ± SEM,ghrelin receptor [1]; [13],85 ± 3 Δ %
same,x-fold (Emax),ghrelin receptor [1]; [14],1.3 x-fold
same,x-fold (EC50),ghrelin receptor [1]; [15],28.5 x-fold
"CC(C)C[C@H](NC(=O)[C@H](CC(C)C)NC(=O)[C@@H](Cc1cccc2ccccc12)NC(=O)[C@H](Cc1ccccc1)NC(=O)[C@@H](Cc1cccc2ccccc12)NC(=O)[C@@H](N)CCCCN)C(N)=O [Peptide 18, K-(D-1-Nal)-F-(D-1-Nal)-LL-NH2]",activity at the ghrelin receptor (in words),ghrelin receptor [1],totally suppressed activity
"CCC[C@H](NC(=O)[C@@H](Cc1cccc2ccccc12)NC(=O)[C@@H](N)CCCCN)C(=O)N[C@H](Cc1c[nH]c2ccccc12)C(=O)N[C@@H](CC(C)C)C(=O)N[C@@H](CC(C)C)C(N)=O [Peptide 24, K-(D-1-Nal)-(L-Nva)-wLL-NH2] (H-K[d1Nal][Nva][dW]LL-NH2)",Emax ± SEM,ghrelin receptor [1]; [13],71 ± 4 Δ %
same,x-fold (Emax),ghrelin receptor [1]; [14],1.1 x-fold
same,x-fold (EC50),ghrelin receptor [1]; [15],146.5 x-fold
"CC(C)C[C@H](NC(=O)[C@H](CC(C)C)NC(=O)[C@@H](Cc1c[nH]c2ccccc12)NC(=O)[C@H](Cc1ccccc1)NC(=O)[C@@H](Cc1ccc(C(=O)c2ccccc2)cc1)NC(=O)[C@@H](N)CCCCN)C(N)=O [Peptide 7, K-(D-Bpa)-FwLL-NH2]",activity at the ghrelin receptor (in words),ghrelin receptor [1],moderate activity
same,Emax ± SEM,ghrelin receptor [1]; [4],67 ± 7 Δ %
same,x-fold (Emax),ghrelin receptor [1]; [6],1.8 x-fold
same,x-fold (EC50),ghrelin receptor [1]; [7],3.70 x-fold
"CC(C)C[C@H](NC(=O)[C@H](CC(C)C)NC(=O)[C@@H](Cc1ccc(-c2ccccc2)cc1)NC(=O)[C@H](Cc1ccccc1)NC(=O)[C@@H](Cc1c[nH]c2ccccc12)NC(=O)[C@@H](N)CCCCN)C(N)=O [Peptide 14, KwF-(D-Bip)-LL-NH2]",activity at the ghrelin receptor (in words),ghrelin receptor [1],no activity
"CC(C)C[C@H](NC(=O)[C@H](CC(C)C)NC(=O)[C@@H](Cc1c[nH]c2ccccc12)NC(=O)[C@H](Cc1ccccc1)NC(=O)[C@@H](Cc1c[nH]c2ccccc12)NC(=O)[C@@H](N)CCCCN)C(N)=O [Peptide 2, KwFwLL-NH2, reference compound]",Emax,ghrelin receptor [1]; [16],37%
same,Emax ± SEM,ghrelin receptor [1]; [4],37 ± 5 Δ %
same,EC50,ghrelin receptor [1]; [5],45.6 nM
same,x-fold (Emax),ghrelin receptor [1]; [6],1 x-fold
same,x-fold (EC50),ghrelin receptor [1]; [7],1 x-fold
"CC(C)C[C@H](NC(=O)[C@H](CC(C)C)NC(=O)[C@@H](Cc1c[nH]c2ccccc12)NC(=O)[C@H](Cc1ccc(C(C)(C)C)cc1)NC(=O)[C@@H](Cc1cccc2ccccc12)NC(=O)[C@@H](N)CCCCN)C(N)=O [Peptide 22, K-(D-1-Nal)-(L-tBf)-wLL-NH2]",Emax,ghrelin receptor [1]; [16],84%
same,Emax ± SEM,ghrelin receptor [1]; [13],84 ± 3 Δ %
same,x-fold (Emax),ghrelin receptor [1]; [14],1.3 x-fold
same,x-fold (EC50),ghrelin receptor [1]; [15],36.5 x-fold
"CC(C)C[C@H](NC(=O)[C@H](CC(C)C)NC(=O)[C@@H](Cc1c[nH]c2ccccc12)NC(=O)[C@H](Cc1ccccc1)NC(=O)[C@H](NC(=O)[C@@H](N)CCCCN)C(c1ccccc1)c1ccccc1)C(N)=O [Peptide 5, K-(D-Dip)-FwLL-NH2]",Emax,ghrelin receptor [1]; [16],> 80%
same,Emax ± SEM,ghrelin receptor [1]; [4],87 ± 2 Δ %
same,increase in activity compared with peptide 2 (KwFwLL-NH2),ghrelin receptor [1]; inverse agonistic activity,3.5 fold
same,x-fold (Emax),ghrelin receptor [1]; [6],2.4 x-fold
same,x-fold (EC50),ghrelin receptor [1]; [7],0.29 x-fold
"CC(C)C[C@H](NC(=O)[C@H](CC(C)C)NC(=O)[C@@H](Cc1c[nH]c2ccccc12)NC(=O)[C@@H](NC(=O)[C@@H](Cc1cccc2ccccc12)NC(=O)[C@@H](N)CCCCN)c1ccccc1)C(N)=O [Peptide 25, K-(D-1-Nal)-(L-Phg)-wLL-NH2] (H-K[d1Nal][Phg][dW]LL-NH2; N-terminus assumed)",x-fold (EC50),ghrelin receptor [1]; [15],>290 x-fold
"CC(C)C[C@H](NC(=O)[C@H](CC(C)C)NC(=O)[C@@H](Cc1csc2ccccc12)NC(=O)[C@H](Cc1ccccc1)NC(=O)[C@@H](Cc1cccc2ccccc12)NC(=O)[C@@H](N)CCCCN)C(N)=O [Peptide 19, K-(D-1-Nal)-F-(D-Bth)-LL-NH2]",Emax,ghrelin receptor [1]; [16],40%
same,Emax ± SEM,"ghrelin receptor [1]; inverse agonistic activity, analogs KxFxLL-NH2 (Table 4)",40 ± 2 Δ %
"CC(C)C[C@H](NC(=O)[C@H](CC(C)C)NC(=O)[C@@H](Cc1c[nH]c2ccccc12)NC(=O)[C@H](Cc1ccccc1)NC(=O)[C@@H](Cc1ccc(-c2ccccc2)cc1)NC(=O)[C@@H](N)CCCCN)C(N)=O [Peptide 8, K-(D-Bip)-FwLL-NH2]",activity at the ghrelin receptor (in words),ghrelin receptor [1],moderate activity
same,Emax,ghrelin receptor [1]; [16],> 80%
same,Emax ± SEM,ghrelin receptor [1]; [4],82 ± 0 Δ %
same,x-fold (Emax),ghrelin receptor [1]; [6],2.2 x-fold
same,x-fold (EC50),ghrelin receptor [1]; [7],4.03 x-fold
